Source: patent US8076112B2, “Fermentation processes” (priority 2006, dated 2011)

Test system: Lactobacillus paracasei
Assay: Effect of Lysozyme on Lactobacillus in fermentation medium (liquefied corn mash), bacterial plating and counting
Assay type: cell-based
Conditions: 0-100-300-1000 mg/L Lysozyme in corn mash pH 5.05, 32° C., 0, 24 and 48 hours (FIG. 4)
Procedure: Milled corn was liquefied in an aqueous slurry (pH 5.6) using 50 NU/g DS Bacterial Alpha-Amylase A by heating until a temperature of 85° C. (approx 20 minutes) was reached. Thereafter the slurry is cooked for another 60 minutes. A sample of the liquefied corn mash (CM) was pH-adjusted to 5.05 with H2SO4. After pH adjustment, the mash was split up into approximately 59 of CM and added to 36 15 mL plastic centrifuge tubes. Various amounts of L. paracasei were then added to give an initial cell count of about 1-3×10^6/mL. Different dosages (0-100-300-1000 mg/L) of Lysozyme (Sigma) were also added to each tube. The tubes were then thoroughly vortexed and placed in a rack in 32° C. water bath. Tubes were pulled after 0, 24, and 48 hours for bacterial plating and counting. No additional Lysozyme was added to any of the tubes after time zero.

Lysozyme: Lysozyme from hen egg white, cat # L-7651, purchased from Sigma
Antibacterial effect on Lactobacillus (growth inhibition): effective inhibiting growth of Lactobacillus paracasei
